Literature values as cited in patent US20200181654A1, “AGLYCONE PRODUCTION PROMOTER” (priority 2016, published 2020).

Details: after oral ingestion

O=c1c(-c2ccc(O)cc2)coc2cc(O)ccc12 [daidzein]
maximum values of the plasma concentrations of the aglycones, relative to ingestion of the glycosides (daidzin, genistin): five times or greater

O=c1c(-c2ccc(O)cc2)coc2cc(O)cc(O)c12 [genistein]
maximum values of the plasma concentrations of the aglycones, relative to ingestion of the glycosides (daidzin, genistin): five times or greater
